Literature values as cited in patent US7041655B1, “Capillary membrane stabilization and reduction of tissue injury through use of IV biodegradable macromolecules with antioxidants and/or other chemicals” (priority 1996, dated 2006).

Legend:
[1] = used for fluid replacement therapy
[2] = in 24 hours; molecules below 50,000 daltons rapidly eliminated by renal excretion
[3] = intravenous infusion

In the case of dextran, the toxic reactions observed [1] is given as “Few toxic reactions”.
For hydroxyethyl starch, the “part of a given total dose appearing in the urine” value [2] is listed as “approximately 40%”, the “duration of improved hemodynamic status of the subject” value [3] is listed as at least 24 h and the “time over which the expansion of plasma volume decreases” value ([3]; expansion slightly in excess of the volume infused) is listed as 24 to 36 h. For the same substance, the toxic reactions observed [1] was “Few toxic reactions”.
